Data reported in patent US9382197B2, “Substituted hydroxamic acids and uses thereof” (Millennium Pharmaceuticals, Inc., priority 2010, dated 2016).

Biological target: T1, purified human HDAC6 (Homo sapiens, UniProt Q9UBN7)
T1 construct: purchased BPS Bioscience 5006
T1 sequence (Q9UBN7 1-1215): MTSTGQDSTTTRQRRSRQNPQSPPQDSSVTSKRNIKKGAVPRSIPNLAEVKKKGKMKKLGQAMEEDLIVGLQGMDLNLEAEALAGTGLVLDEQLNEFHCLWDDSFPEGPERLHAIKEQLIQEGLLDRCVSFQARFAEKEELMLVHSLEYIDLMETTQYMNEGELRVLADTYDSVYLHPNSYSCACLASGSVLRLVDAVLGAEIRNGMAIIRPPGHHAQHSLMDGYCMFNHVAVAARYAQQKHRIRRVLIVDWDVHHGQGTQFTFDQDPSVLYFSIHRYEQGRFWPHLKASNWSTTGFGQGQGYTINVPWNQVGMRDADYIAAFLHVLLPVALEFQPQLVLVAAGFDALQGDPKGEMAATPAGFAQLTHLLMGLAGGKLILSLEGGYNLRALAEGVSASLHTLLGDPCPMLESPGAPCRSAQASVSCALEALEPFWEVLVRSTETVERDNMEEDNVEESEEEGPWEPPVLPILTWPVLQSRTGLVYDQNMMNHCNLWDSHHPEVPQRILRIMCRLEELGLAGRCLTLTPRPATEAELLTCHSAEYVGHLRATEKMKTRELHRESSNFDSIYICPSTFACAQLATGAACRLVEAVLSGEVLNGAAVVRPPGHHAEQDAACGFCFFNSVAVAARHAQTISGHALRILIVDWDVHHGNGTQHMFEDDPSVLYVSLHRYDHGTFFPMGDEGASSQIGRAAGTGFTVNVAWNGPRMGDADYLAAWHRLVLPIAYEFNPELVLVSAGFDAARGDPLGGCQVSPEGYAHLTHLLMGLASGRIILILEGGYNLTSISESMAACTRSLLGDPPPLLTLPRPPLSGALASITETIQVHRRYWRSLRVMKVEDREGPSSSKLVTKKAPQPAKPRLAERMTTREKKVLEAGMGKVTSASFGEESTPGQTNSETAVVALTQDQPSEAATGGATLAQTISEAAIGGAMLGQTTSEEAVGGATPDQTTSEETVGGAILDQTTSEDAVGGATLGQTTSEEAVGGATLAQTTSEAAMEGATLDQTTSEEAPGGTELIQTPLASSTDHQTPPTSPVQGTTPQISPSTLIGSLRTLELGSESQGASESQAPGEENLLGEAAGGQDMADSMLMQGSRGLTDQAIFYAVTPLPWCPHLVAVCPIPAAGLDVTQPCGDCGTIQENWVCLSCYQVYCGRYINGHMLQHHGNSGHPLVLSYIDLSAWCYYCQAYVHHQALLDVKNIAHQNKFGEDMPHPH
Experiment: HDAC6 Enzyme Assay
Format: biochemical
In short: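 Purified human HDAC6 incubated 1 h at 30 °C with Ac-Arg-Gly-Lys(Ac)-AMC and compound; trichostatin A stop, trypsin release of AMC, fluorescence Ex 340/Em 460 nm. IC50 from concentration–response relative to DMSO.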

[1] = purified human HDAC6, substrate Ac-Arg-Gly-Lys(Ac)-AMC, 1 hour at 30° C., reported as bins

| IC50 [1] | further results | Structure (SMILES) |
| --- | --- | --- |
| 100 to 500 nM |  | CC(NC(=O)c1cc2ccccc2n1C)c1cccc(C(=O)NO)c1 (centres unmarked) [Compound I-219, N-(1-{3-[(hydroxyamino)carbonyl]phenyl}ethyl)-1-methyl-1H-indole-2-carboxamide] |
| 100 to 500 nM |  | Cc1[nH]c2c(C)ccc(C)c2c1CC(=O)NC(c1ccc(C(=O)NO)cc1)C(C)C (centres unmarked) [Compound I-220, N-hydroxy-4-(2-methyl-1-{[(2,4,7-trimethyl-1H-indol-3-yl)acetyl]amino}propyl)benzamide] |
| < 100 nM |  | CCC[C@@H](NC(=O)c1cc2oc(-c3ccccc3)cc2n1C)c1ccc(C(=O)NO)cc1 [Compound I-222, N-((1R)-1-{4-[(hydroxyamino)carbonyl]phenyl}butyl)-4-methyl-2-phenyl-4H-furo[3,2-b]pyrrole-5-carboxamide] |
| < 100 nM |  | CC(C)[C@@H](NC(=O)C12CC3CC(CC(O)(C3)C1)C2)c1ccc(C(=O)NO)cc1 [Compound I-223, 3-hydroxy-N-((1R)-1-{4-[(hydroxyamino)carbonyl]phenyl}-2-methylpropyl)adamantane-1-carboxamide] |
| < 100 nM |  | CC(NC(=O)C1=Cc2ccccc2OC1)c1ccc(C(=O)NO)cc1 (centres unmarked) [Compound I-224, N-(1-{4-[(hydroxyamino)carbonyl]phenyl}ethyl)-2H-chromene-3-carboxamide] |
| < 100 nM |  | COc1cccc(C(=O)NC(C)c2ccc(C(=O)NO)cc2)c1 (centres unmarked) [Compound I-225, N-(1-{4-[(hydroxyamino)carbonyl]phenyl}ethyl)-3-methoxybenzamide] |
| 100 to 500 nM |  | CC(NC(=O)c1cc2cc(Cl)ccc2o1)c1cccc(C(=O)NO)c1 (centres unmarked) [Compound I-226, 5-chloro-N-(1-{3-[(hydroxyamino)carbonyl]phenyl}ethyl)-1-benzofuran-2-carboxamide] |
| 100 to 500 nM |  | CC(NC(=O)c1cc2ccccc2[nH]1)c1cccc(C(=O)NO)c1 (centres unmarked) [Compound I-227, N-(1-{3-[(hydroxyamino)carbonyl]phenyl}ethyl)-1H-indole-2-carboxamide] |
| < 100 nM |  | CC(NC(=O)c1sccc1-n1cccc1)c1ccc(C(=O)NO)cc1 (centres unmarked) [Compound I-228, N-(1-{4-[(hydroxyamino)carbonyl]phenyl}ethyl)-3-(1H-pyrrol-1-yl)thiophene-2-carboxamide] |
| < 100 nM |  | O=C(NO)c1ccc([C@H](NC(=O)c2cc3ccccc3s2)C2CC2)cc1 [Compound I-229, N-((R)-cyclopropyl{4-[(hydroxyamino)carbonyl]phenyl}methyl)-1-benzothiophene-2-carboxamide] |
| < 100 nM |  | Cc1nc2cc(C(=O)NC(C)c3ccc(C(=O)NO)cc3)ccc2s1 (centres unmarked) [Compound I-230, N-(1-{4-[(hydroxyamino)carbonyl]phenyl}ethyl)-2-methyl-1,3-benzothiazole-5-carboxamide] |
|  | IC50 (bin: greater than 1 μM): > 1000 nM | Cn1c(C(=O)N[C@@H](c2ccc(C(=O)NO)cc2)C(F)(F)F)cc2oc(-c3ccccc3)cc21 [Compound I-231, 4-methyl-2-phenyl-N-((1S)-2,2,2-trifluoro-1-{4-[(hydroxyamino)carbonyl]phenyl}ethyl)-4H-furo[3,2-b]pyrrole-5-carboxamide] |
| 100 to 500 nM |  | Cc1ccccc1S(=O)(=O)NC(C)c1ccc(C(=O)NO)cc1 (centres unmarked) [Compound I-232, N-hydroxy-4-(1-{[(2-methylphenyl)sulfonyl]amino}ethyl)benzamide] |
| < 100 nM |  | CC(NC(=O)c1ccc2nsnc2c1)c1ccc(C(=O)NO)cc1 (centres unmarked) [Compound I-233, N-(1-{4-[(hydroxyamino)carbonyl]phenyl}ethyl)-2,1,3-benzothiadiazole-5-carboxamide] |
|  | IC50 (bin: greater than 1 μM): > 1000 nM | Cc1oc(-c2ccccc2)nc1CC(=O)NC(C)c1cccc(C(=O)NO)c1 (centres unmarked) [Compound I-234, N-hydroxy-3-(1-{[(5-methyl-2-phenyl-1,3-oxazol-4-yl)acetyl]amino}ethyl)benzamide] |
| < 100 nM |  | CC(NC(=O)Nc1ccc(C#N)cc1)c1ccc(C(=O)NO)cc1 (centres unmarked) [Compound I-236, 4-[1-({[(4-cyanophenyl)amino]carbonyl}amino)ethyl]-N-hydroxybenzamide] |
| < 100 nM |  | Cc1c(C(=O)N[C@H](C)c2ccc(C(=O)NO)cc2)oc2ccccc12 [Compound I-237, N-((1R)-1-{4-[(hydroxyamino)carbonyl]phenyl}ethyl)-3-methyl-1-benzofuran-2-carboxamide] |
|  | IC50 (bin: greater than 1 μM): > 1000 nM | Cc1noc(C)c1C(=O)NC(c1ccc(C(=O)NO)cc1)C(C)C (centres unmarked) [Compound I-238, N-(1-{4-[(hydroxyamino)carbonyl]phenyl}-2-methylpropyl)-3,5-dimethylisoxazole-4-carboxamide] |
| 100 to 500 nM |  | CC(NC(=O)C1CC1)c1ccc(C(=O)NO)cc1 (centres unmarked) [Compound I-239, 4-{1-[(cyclopropylcarbonyl)amino]ethyl}-N-hydroxybenzamide] |
| 100 to 500 nM |  | C[C@H](NC(=O)c1cc2ccccc2s1)c1cccc(C(=O)NO)c1 [Compound I-240, N-((1S)-1-{3-[(hydroxyamino)carbonyl]phenyl}ethyl)-1-benzothiophene-2-carboxamide] |
|  | IC50 (bin: greater than 1 μM): > 1000 nM | Cc1cc(C(=O)NC(C)c2ccc(C(=O)NO)cc2)nn1C (centres unmarked) [Compound I-241, N-(1-{4-[(hydroxyamino)carbonyl]phenyl}ethyl)-1,5-dimethyl-1H-pyrazole-3-carboxamide] |
| < 100 nM |  | CC(C)[C@@H](NC(=O)c1cc2ccccc2n1C)c1ccc(C(=O)NO)cc1 [Compound I-242, N-((1R)-1-{4-[(hydroxyamino)carbonyl]phenyl}-2-methylpropyl)-1-methyl-1H-indole-2-carboxamide] |
| < 100 nM |  | CCCC(=O)NC(C)c1ccc(C(=O)NO)cc1 (centres unmarked) [Compound I-243, 4-[1-(butyrylamino)ethyl]-N-hydroxybenzamide] |
|  | IC50 (bin: greater than 1 μM): > 1000 nM | CC(NC(=O)c1csc2ccccc12)c1ccc(C(=O)NO)cc1 (centres unmarked) [Compound I-244, N-(1-{4-[(hydroxyamino)carbonyl]phenyl}ethyl)-1-benzothiophene-3-carboxamide] |
| < 100 nM |  | CCC[C@@H](NC(=O)c1cc(Cl)c(Cl)n1C)c1ccc(C(=O)NO)cc1 [Compound I-245, 4,5-dichloro-N-((1R)-1-{4-[(hydroxyamino)carbonyl]phenyl}butyl)-1-methyl-1H-pyrrole-2-carboxamide] |
|  | IC50 (bin: greater than 500 nM and less than 1 μM (lower bound in nM, upper bound in μM)): 500 to 1000 nM | CC(C)C(NC(=O)c1ccnc2ccccc12)c1ccc(C(=O)NO)cc1 (centres unmarked) [Compound I-246, N-(1-{4-[(hydroxyamino)carbonyl]phenyl}-2-methylpropyl)quinoline-4-carboxamide] |
| < 100 nM |  | CC(C)C(NC(=O)c1cc2cc(Cl)ccc2[nH]1)c1ccc(C(=O)NO)cc1 (centres unmarked) [Compound I-247, 5-chloro-N-(1-{4-[(hydroxyamino)carbonyl]phenyl}-2-methylpropyl)-1H-indole-2-carboxamide] |
|  | IC50 (bin: greater than 1 μM): > 1000 nM | Cn1c(C(=O)NC(c2ccc(C(=O)NO)cc2)C(C)(C)C)cc2oc(-c3ccc(C(F)(F)F)cc3)cc21 (centres unmarked) [Compound I-248, N-(1-{4-[(hydroxyamino)carbonyl]phenyl}-2,2-dimethylpropyl)-4-methyl-2-[4-(trifluoromethyl)phenyl]-4H-furo[3,2-b]pyrrole-5-carboxamide] |
| 100 to 500 nM |  | O=C(NO)c1ccc([C@@H](NC(=O)c2cc3ccccc3s2)C2CC2)cc1 [Compound I-249, N-((S)-cyclopropyl{4-[(hydroxyamino)carbonyl]phenyl}methyl)-1-benzothiophene-2-carboxamide] |
